Test results: publication PMC5458547, “Discovery of first-in-class reversible dual small molecule inhibitors against G9a and DNMTs in hematological malignancies” (Nature Communications, 2017)

Assays:
MOLM-13 = test: Cell proliferation assay (MTS); assay type: cell-based; conditions: Homo sapiens, AML, 48 h
N417 = test: Cell proliferation assay (MTS); assay type: cell-based; conditions: Homo sapiens, SCLC
OCI-AML-2 = test: Cell proliferation assay (MTS); assay type: cell-based, human; conditions: Homo sapiens, OCI-AML2; AML, 48 h; read-out: GI50
PEER = test: Cell proliferation assay (MTS); assay type: cell-based; conditions: Homo sapiens; ALL, 48 h
RPMI 8226 = test: Cell proliferation assay (MTS); assay type: cell-based; conditions: Homo sapiens, MM
Maximum tolerated dose = conditions: mouse, in vivo, iv
U87-MG = test: Cell proliferation assay (MTS); assay type: cell-based; conditions: Homo sapiens, U-87 MG; Glioblastoma
MLL-WARD = target: T1, MLL-WARD (Homo sapiens, UniProt Q03164); test: Epigenetics selectivity panel (BPS Bioscience); assay type: biochemical
T1 construct: purchased DiscoverX KINOMEscan (kinases); BPS Bioscience (epigenetic targets)

PRMT1 = target: T2, PRMT1 (Homo sapiens, UniProt Q99873); test: Epigenetics selectivity panel (BPS Bioscience); assay type: biochemical
T2 construct: purchased BPS Bioscience (contract panel)
T2 sequence (Q99873 whole entry): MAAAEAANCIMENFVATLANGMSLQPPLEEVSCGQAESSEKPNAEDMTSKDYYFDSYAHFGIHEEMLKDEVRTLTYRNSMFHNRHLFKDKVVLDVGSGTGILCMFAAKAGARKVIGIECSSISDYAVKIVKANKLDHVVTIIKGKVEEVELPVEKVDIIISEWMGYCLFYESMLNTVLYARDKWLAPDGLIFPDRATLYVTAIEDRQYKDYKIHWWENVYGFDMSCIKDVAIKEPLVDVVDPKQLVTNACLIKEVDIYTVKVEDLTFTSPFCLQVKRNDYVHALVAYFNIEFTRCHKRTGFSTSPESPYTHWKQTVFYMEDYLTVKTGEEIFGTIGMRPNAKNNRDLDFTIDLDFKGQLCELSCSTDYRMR

HCT-116 = test: Cell proliferation assay (MTS); assay type: cell-based; conditions: Homo sapiens, Colorectal
Jarid1B = target: T3, Jarid1B (Homo sapiens, UniProt Q9UGL1); test: Epigenetics selectivity panel (BPS Bioscience); assay type: biochemical
T3 construct: purchased DiscoverX KINOMEscan (kinases); BPS Bioscience (epigenetic targets)

EZH1 = target: T4, EZH1 (Homo sapiens, UniProt Q92800); test: Epigenetics selectivity panel (BPS Bioscience); assay type: biochemical
T4 construct: purchased DiscoverX KINOMEscan (kinases); BPS Bioscience (epigenetic targets)

PRMT4 = target: T5, PRMT4 (Homo sapiens, UniProt Q86X55); test: Epigenetics selectivity panel (BPS Bioscience); assay type: biochemical
T5 construct: purchased DiscoverX KINOMEscan (kinases); BPS Bioscience (epigenetic targets)
T5 sequence (Q86X55 whole entry): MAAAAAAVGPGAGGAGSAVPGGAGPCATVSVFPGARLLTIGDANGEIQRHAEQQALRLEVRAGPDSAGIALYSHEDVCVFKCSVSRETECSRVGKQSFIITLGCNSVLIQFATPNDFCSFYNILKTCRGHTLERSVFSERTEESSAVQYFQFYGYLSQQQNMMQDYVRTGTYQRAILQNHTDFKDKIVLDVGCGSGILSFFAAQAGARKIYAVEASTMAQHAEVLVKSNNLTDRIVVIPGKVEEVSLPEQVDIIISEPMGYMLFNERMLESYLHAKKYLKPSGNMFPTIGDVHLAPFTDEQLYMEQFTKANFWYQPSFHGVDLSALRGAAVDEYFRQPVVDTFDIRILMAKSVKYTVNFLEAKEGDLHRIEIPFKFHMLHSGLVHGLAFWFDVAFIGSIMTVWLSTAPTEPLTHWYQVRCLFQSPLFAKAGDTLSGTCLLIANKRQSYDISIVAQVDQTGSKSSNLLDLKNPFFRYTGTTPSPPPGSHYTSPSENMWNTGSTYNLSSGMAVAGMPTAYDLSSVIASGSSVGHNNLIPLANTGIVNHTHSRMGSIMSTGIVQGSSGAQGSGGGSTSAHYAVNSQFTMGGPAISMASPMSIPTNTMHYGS

TAF1 = target: T6, TAF1 (Homo sapiens, UniProt P21675); test: Epigenetics selectivity panel (BPS Bioscience); assay type: binding
T6 construct: purchased DiscoverX KINOMEscan (kinases); BPS Bioscience (epigenetic targets)
T6 sequence (P21675 whole entry): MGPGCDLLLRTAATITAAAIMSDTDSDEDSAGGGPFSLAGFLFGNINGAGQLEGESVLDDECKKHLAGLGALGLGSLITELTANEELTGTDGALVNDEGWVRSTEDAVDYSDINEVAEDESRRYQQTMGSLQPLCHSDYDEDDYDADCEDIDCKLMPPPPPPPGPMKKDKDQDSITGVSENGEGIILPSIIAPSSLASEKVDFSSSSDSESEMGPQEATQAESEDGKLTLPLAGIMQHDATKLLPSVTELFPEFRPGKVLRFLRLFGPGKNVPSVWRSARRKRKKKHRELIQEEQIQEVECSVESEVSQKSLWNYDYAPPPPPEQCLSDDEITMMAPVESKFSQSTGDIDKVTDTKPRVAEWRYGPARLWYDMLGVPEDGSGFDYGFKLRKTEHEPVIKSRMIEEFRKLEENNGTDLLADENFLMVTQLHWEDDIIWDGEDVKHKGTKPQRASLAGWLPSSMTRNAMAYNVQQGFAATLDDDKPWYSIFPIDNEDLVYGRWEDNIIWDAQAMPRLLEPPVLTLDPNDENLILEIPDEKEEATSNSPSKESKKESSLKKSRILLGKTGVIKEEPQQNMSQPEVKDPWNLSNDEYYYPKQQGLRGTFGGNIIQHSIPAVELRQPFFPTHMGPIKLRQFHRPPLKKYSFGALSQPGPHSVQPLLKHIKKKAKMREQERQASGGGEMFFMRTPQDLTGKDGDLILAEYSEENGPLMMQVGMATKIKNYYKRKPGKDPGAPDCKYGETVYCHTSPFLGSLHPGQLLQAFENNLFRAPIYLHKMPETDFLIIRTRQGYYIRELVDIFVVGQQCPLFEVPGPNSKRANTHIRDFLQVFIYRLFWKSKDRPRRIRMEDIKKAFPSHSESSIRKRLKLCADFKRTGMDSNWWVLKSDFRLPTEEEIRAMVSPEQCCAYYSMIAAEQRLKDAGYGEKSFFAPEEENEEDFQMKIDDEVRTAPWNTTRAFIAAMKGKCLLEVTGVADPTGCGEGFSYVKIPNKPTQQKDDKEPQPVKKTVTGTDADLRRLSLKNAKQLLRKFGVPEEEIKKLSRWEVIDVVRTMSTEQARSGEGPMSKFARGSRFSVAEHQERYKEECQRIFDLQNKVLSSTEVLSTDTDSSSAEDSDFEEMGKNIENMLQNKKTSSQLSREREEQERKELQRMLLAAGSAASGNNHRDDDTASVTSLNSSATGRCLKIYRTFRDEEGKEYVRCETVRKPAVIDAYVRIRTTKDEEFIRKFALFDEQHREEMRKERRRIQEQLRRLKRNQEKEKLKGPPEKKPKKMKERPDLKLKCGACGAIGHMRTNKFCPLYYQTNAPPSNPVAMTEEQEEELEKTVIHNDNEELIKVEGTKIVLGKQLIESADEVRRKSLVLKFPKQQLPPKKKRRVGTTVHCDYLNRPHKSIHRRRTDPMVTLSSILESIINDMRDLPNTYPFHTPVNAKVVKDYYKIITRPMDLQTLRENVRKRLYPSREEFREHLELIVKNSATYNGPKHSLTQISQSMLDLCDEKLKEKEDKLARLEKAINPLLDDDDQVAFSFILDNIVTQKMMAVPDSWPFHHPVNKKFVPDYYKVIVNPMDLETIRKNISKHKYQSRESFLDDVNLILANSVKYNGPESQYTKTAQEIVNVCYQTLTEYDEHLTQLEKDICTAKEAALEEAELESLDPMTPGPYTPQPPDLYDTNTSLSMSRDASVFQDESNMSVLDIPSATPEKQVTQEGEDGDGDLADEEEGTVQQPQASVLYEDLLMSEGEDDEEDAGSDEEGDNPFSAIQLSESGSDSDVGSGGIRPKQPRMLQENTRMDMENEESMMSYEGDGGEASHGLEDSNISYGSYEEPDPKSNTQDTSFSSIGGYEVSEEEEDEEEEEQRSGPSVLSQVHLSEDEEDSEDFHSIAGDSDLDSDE

SUV39H1 = target: T7, SUV39H1 (Homo sapiens, UniProt O43463); test: Epigenetics selectivity panel (BPS Bioscience); assay type: biochemical
T7 construct: purchased DiscoverX KINOMEscan (kinases); BPS Bioscience (epigenetic targets)
T7 sequence (O43463 whole entry): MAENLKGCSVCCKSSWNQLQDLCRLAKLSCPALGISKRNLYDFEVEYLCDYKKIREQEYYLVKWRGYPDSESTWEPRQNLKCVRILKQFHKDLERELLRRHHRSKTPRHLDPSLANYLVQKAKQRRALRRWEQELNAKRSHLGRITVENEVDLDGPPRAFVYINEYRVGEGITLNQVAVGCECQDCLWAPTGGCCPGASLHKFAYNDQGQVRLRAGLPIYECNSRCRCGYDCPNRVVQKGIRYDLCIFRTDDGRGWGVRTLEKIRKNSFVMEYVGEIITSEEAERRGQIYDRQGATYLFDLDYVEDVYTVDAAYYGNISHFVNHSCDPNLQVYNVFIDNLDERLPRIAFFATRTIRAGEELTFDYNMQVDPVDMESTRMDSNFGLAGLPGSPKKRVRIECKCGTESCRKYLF

in vitro = assay type: cell-based; conditions: human
Experimental: Cell viability was determined by measuring the concentration of cellular adenosine triphosphate (ATP) using the ATP1Step Kit as described by the manufacturer (Perkin-Elmer). PBMCs were isolated following the regular density gradient centrifugation procedure with Ficoll. Details are provided in Supplementary Information. […]
each test plate followed by incubation for 10 min at room temperature on an orbital shaker. ATP concentration was determined by reading chemical luminescence using the Envision plate reader (PerkinElmer). The percentage of viable cells relative to the non-drug treated controls was determined for […]
Cells were plated in 96-well black microplates at 100,000 cells/well density with DMEM medium (containing 10% FBS and antibiotics) and were incubated at 37 °C (5% CO2, 95% humidity) for 24 h. […] Following this 72 h exposure to test compounds, cell viability in each well was determined by measuring the concentration of cellular adenosine triphosphate (ATP) using the ATP1Step Kit as described by the manufacturer (Perkin-Elmer). […] ATP concentration was determined by reading chemical luminescence using the Envision plate reader (PerkinElmer). […]
sampler temperature was set at 7 °C and column temperature at 50 °C. For detection and quantification, the electrospray ionization operated in the positive mode, and the collision gas used was ultra-pure argon at a flow rate of 0.15 mL min−1. […]

HL-60 = test: Cell proliferation assay (MTS); assay type: cell-based; conditions: Homo sapiens, AML, 48 h
MM1.R = test: Cell proliferation assay (MTS); assay type: cell-based; conditions: Homo sapiens, MM.1R
697 = test: Cell proliferation assay (MTS); assay type: cell-based; conditions: Homo sapiens; ALL, 48 h
SUV39H2 = target: T8, SUV39H2 (Homo sapiens, UniProt Q9H5I1); test: Epigenetics selectivity panel (BPS Bioscience); assay type: biochemical
T8 construct: purchased DiscoverX KINOMEscan (kinases); BPS Bioscience (epigenetic targets)

LOVO = test: Cell proliferation assay (MTS); assay type: cell-based; conditions: Homo sapiens, Colorectal
SU8686 = test: Cell proliferation assay (MTS); assay type: cell-based; conditions: Homo sapiens, SU.86.86; Pancreas
LAL-CUN-2 = test: Cell proliferation assay (MTS); assay type: cell-based; conditions: Homo sapiens; ALL, 48 h; read-out: GI50
MM1.S = test: Cell proliferation assay (MTS); assay type: cell-based; conditions: Homo sapiens
UM-UC-7 = test: Cell proliferation assay (MTS); assay type: cell-based; conditions: Homo sapiens; Bladder
H1299 = test: Cell proliferation assay (MTS); assay type: cell-based; conditions: Homo sapiens, NCI-H1299; NSCLC
SEM cells = test: Cell proliferation assay (MTS); assay type: cell-based; conditions: Homo sapiens; ALL, 48 h
Jarid1C = target: T9, Jarid1C (Homo sapiens, UniProt P41229); test: Epigenetics selectivity panel (BPS Bioscience); assay type: biochemical
T9 construct: purchased DiscoverX KINOMEscan (kinases); BPS Bioscience (epigenetic targets)
T9 sequence (P41229 whole entry): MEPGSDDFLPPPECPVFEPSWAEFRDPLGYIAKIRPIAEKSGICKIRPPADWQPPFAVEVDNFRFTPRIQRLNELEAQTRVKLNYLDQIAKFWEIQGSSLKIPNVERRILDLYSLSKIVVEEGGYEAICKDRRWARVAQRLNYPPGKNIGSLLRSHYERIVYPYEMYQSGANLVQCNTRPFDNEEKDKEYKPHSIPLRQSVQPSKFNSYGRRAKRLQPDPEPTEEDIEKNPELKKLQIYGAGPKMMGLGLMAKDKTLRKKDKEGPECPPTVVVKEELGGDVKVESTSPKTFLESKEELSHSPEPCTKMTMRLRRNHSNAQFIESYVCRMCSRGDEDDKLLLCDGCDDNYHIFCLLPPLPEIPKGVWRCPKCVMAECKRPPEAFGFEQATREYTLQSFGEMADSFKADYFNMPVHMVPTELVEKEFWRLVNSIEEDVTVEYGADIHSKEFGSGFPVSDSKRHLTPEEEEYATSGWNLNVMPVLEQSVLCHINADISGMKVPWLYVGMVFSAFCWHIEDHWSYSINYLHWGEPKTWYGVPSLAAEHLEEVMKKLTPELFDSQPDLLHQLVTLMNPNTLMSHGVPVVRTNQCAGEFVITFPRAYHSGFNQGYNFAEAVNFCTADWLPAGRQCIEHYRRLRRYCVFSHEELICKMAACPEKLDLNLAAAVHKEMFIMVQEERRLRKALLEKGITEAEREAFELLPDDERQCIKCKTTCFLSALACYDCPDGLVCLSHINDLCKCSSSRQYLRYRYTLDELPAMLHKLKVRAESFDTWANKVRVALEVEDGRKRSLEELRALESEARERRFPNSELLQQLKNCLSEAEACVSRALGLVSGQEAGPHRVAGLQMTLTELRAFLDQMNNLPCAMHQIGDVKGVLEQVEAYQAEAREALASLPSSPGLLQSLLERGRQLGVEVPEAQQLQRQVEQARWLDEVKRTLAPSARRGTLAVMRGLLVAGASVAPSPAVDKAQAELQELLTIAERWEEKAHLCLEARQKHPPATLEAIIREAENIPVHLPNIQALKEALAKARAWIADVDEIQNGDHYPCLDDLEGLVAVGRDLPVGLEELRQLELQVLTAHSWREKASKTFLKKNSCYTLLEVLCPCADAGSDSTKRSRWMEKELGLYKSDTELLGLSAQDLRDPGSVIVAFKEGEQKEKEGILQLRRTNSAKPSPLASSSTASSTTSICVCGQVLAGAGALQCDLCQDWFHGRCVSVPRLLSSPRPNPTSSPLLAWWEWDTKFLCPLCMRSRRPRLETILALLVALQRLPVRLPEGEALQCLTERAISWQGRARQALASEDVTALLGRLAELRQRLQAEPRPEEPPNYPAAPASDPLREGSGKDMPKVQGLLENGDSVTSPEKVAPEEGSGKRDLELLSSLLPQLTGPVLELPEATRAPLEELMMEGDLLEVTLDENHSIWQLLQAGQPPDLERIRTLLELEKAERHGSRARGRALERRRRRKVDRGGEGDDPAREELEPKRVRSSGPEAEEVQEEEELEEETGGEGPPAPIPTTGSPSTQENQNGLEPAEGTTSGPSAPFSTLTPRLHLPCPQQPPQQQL

| Structure (SMILES) | GI50 (MOLM-13) [µM] | GI50 (N417) [µM] | GI50 (OCI-AML-2) [µM] | GI50 (PEER) [µM] | GI50 (RPMI 8226) [µM] | MTD (Maximum tolerated dose) [mg/kg] | GI50 (U87-MG) [µM] | inhibition at 10 µM (MLL-WARD) [%] | inhibition at 10 µM (PRMT1) [%] | GI50 (HCT-116) [µM] | inhibition at 10 µM (Jarid1B) [%] | inhibition at 10 µM (EZH1) [%] | inhibition at 10 µM (PRMT4) [%] | inhibition at 10 µM (TAF1) [%] | inhibition at 10 µM (SUV39H1) [%] | CC50 at 72 h (in vitro) [µM] | GI50 (HL-60) [µM] | GI50 (MM1.R) [µM] | GI50 697 [µM] | inhibition at 10 µM (SUV39H2) [%] | other results |
| --- | --- | --- | --- | --- | --- | --- | --- | --- | --- | --- | --- | --- | --- | --- | --- | --- | --- | --- | --- | --- | --- |
| COc1cc2c(NC3CCN(C)CC3)cc(-c3ccc(C)o3)nc2cc1OCCCN1CCCC1 [CM-272, 6-methoxy-2-(5-methyl-2-furyl)-N-(1-methyl-4-piperidyl)-7-(3-pyrrolidin-1-ylpropoxy)quinolin-4-amine] | 0.604 | 1.32 | 0.256 | 0.93 | 2 | 2.5 | 0.294 | 4 | 73 | 0.602 | 5 | 6 | 5 | 0 | 1 | 1.9 | 2.9 | 0.98 | 0.913 | 4 | IC50 (PRMT1; BPS): 4 µM; GI50 (LOVO): 1.22 µM; GI50 (SU8686): 1.4 µM; GI50 (LAL-CUN-2): 0.664 µM; GI50 (MM1.S): 1.08 µM; GI50 (UM-UC-7): 0.964 µM; GI50 (H1299): 1.06 µM; GI50 (SEM cells): 3.32 µM; inhibition at 10 µM (Jarid1C): 1% |
| COc1cc2c(NCC3CCN(C)CC3)cc(-c3ccc(C)o3)nc2cc1OCCCN1CCCC1 [CM-579, 6-methoxy-2-(5-methyl-2-furyl)-N-[(1-methyl-4-piperidyl)methyl]-7-(3-pyrrolidin-1-ylpropoxy)quinolin-4-amine] | 1.02 | 0.409 | 0.49 | > 10 | 5.42 | ≤ 1 | 0.118 | 2 | 43 | 0.176 | 27 | 17 | 6 | 4 | 2 | 7.39 | > 10 | 2.11 | 4.29 | 0 | GI50 (LOVO): 0.297 µM; GI50 (SU8686): 0.621 µM; GI50 (LAL-CUN-2): 0.365 µM; GI50 (MM1.S): 3.79 µM; GI50 (UM-UC-7): 0.531 µM; GI50 (H1299): 0.547 µM; GI50 (SEM cells): > 10 µM; inhibition at 10 µM (Jarid1C): 13% |
